The target of test [1] is T1, Extended spectrum beta-lactamase CTX-M-71 (Klebsiella pneumoniae) (UniProt C8YUV9).
T1 sequence (whole entry): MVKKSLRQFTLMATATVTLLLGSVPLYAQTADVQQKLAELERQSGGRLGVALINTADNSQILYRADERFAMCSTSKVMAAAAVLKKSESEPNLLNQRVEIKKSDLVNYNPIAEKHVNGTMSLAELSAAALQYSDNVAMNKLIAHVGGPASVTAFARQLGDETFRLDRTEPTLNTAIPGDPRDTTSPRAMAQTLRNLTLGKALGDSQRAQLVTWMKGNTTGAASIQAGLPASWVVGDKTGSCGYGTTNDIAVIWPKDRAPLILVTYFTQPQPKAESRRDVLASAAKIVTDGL
Briefly: Ratio of Kcat to Km for Klebsiella pneumoniae AH24-270 CTX-M-71 beta-lactamase. The arrangement: unit not given here.

For test [2], the target named is Beta-lactamase AH27 CTX-M-15 (Klebsiella pneumoniae) (UniProt Q2PUH3). Briefly: Ratio of Kcat to Km for Klebsiella pneumoniae AH27 CTX-M-15 beta-lactamase. The arrangement: unit not given here.

With `CC1(C)S[C@@H]2[C@H](NC(=O)[C@H](N)c3ccc(O)cc3)C(=O)N2[C@H]1C(=O)O`, the Ratio in test [1] was found to be 9.4.

With `CCN1CCN(C(=O)N[C@@H](C(=O)N[C@@H]2C(=O)N3[C@@H]2SC(C)(C)[C@@H]3C(=O)O)c2ccccc2)C(=O)C1=O`, the Ratio in test [1] was 8.4.

In the case of `O=C(Cc1cccs1)N[C@@H]1C(=O)N2C(C(=O)[O-])=C(C[n+]3ccccc3)CS[C@H]12`, the values for the Ratio in test [2] and in test [1] were 4.82 and 3.8, respectively.

`CC1(C)S[C@@H]2[C@H](NC(=O)Cc3ccccc3)C(=O)N2[C@H]1C(=O)O`: the Ratio came out at 5.4 in test [2] and 11.8 in test [1].

With `C[C@H]1[C@H](NC(=O)/C(=N\OC(C)(C)C(=O)O)c2csc(N)n2)C(=O)N1S(=O)(=O)O`, the Ratio in test [1] stood at 0.084.

In the case of `CC(C)(O/N=C(\C(=O)N[C@@H]1C(=O)N2C(C(=O)[O-])=C(C[n+]3ccccc3)CS[C@H]12)c1csc(N)n1)C(=O)O`, the Ratio in test [2] came out at 0.0186; in test [1] it was 0.0038.

For the molecule `CO/N=C(\C(=O)N[C@@H]1C(=O)N2C(C(=O)O)=C(COC(C)=O)CS[C@H]12)c1csc(N)n1`, the Ratio was found to be 6.77 in test [2] and 0.5 in test [1].

On to `CO/N=C(\C(=O)N[C@@H]1C(=O)N2C(C(=O)O)=C(COC(N)=O)CS[C@H]12)c1ccco1`, for which the Ratio was 0.25 in test [2] and 0.1 in test [1].

Source of the values: ChEMBL document CHEMBL1649220, “New variant of CTX-M-type extended-spectrum beta-lactamases, CTX-M-71, with a Gly238Cys substitution in a Klebsiella pneumoniae isolate from Bulgaria” (2009).
